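In this assay, cells in 96-well plates receive the compound at five concentrations for 48 hours. Endpoints are linearly interpolated between the surrounding concentrations. The concentration for full growth arrest is given as TGI.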
Experiments:
Assay in all cases: NCI tumour cell line growth inhibition, 48 h
A498 renal = system: A498 renal
A549 NSCLC = system: A549 NSCLC
CAKI-1 renal = system: CAKI-1 renal
CCRF-CEM leukemia = system: CCRF-CEM leukemia
COLO 205 colon = system: COLO 205 colon
DLD-1 colon = system: DLD-1 colon
DMS 114 small cell lung = system: DMS 114 small cell lung
DMS 273 small cell lung = system: DMS 273 small cell lung
EKVX NSCLC = system: EKVX NSCLC
HCC-2998 colon = system: HCC-2998 colon
HCT-116 colon = system: HCT-116 colon
HCT-15 colon = system: HCT-15 colon
HL-60(TB) leukemia = system: HL-60(TB) leukemia
HOP-18 NSCLC = system: HOP-18 NSCLC
HOP-62 NSCLC = system: HOP-62 NSCLC
HOP-92 NSCLC = system: HOP-92 NSCLC
HT29 colon = system: HT29 colon
IGROV1 ovarian = system: IGROV1 ovarian
K-562 leukemia = system: K-562 leukemia
KM12 colon = system: KM12 colon
KM20L2 colon = system: KM20L2 colon
LOX IMVI melanoma = system: LOX IMVI melanoma
M19-MEL melanoma = system: M19-MEL melanoma
MALME-3M melanoma = system: MALME-3M melanoma
MCF7 breast = system: MCF7 breast
MOLT-4 leukemia = system: MOLT-4 leukemia
NCI-H226 lung = system: NCI-H226 lung
NCI-H23 lung = system: NCI-H23 lung
NCI-H460 lung = system: NCI-H460 lung
NCI-H522 lung = system: NCI-H522 lung
NCI/ADR-RES ovarian = system: NCI/ADR-RES ovarian
OVCAR-3 ovarian = system: OVCAR-3 ovarian
OVCAR-4 ovarian = system: OVCAR-4 ovarian
OVCAR-5 ovarian = system: OVCAR-5 ovarian
OVCAR-8 ovarian = system: OVCAR-8 ovarian
P388 leukemia = system: P388 leukemia
P388/ADR leukemia = system: P388/ADR leukemia
RPMI-8226 leukemia = system: RPMI-8226 leukemia
RXF 393 renal = system: RXF 393 renal
SF-268 CNS = system: SF-268 CNS
SF-295 CNS = system: SF-295 CNS
SF-539 CNS = system: SF-539 CNS
SK-MEL-2 melanoma = system: SK-MEL-2 melanoma
SK-MEL-28 melanoma = system: SK-MEL-28 melanoma
SK-MEL-5 melanoma = system: SK-MEL-5 melanoma
SK-OV-3 ovarian = system: SK-OV-3 ovarian
SN12C renal = system: SN12C renal
SN12K1 renal = system: SN12K1 renal
SNB-19 CNS = system: SNB-19 CNS
SNB-75 CNS = system: SNB-75 CNS
SNB-78 CNS = system: SNB-78 CNS
SW-620 colon = system: SW-620 colon
U251 CNS = system: U251 CNS
UACC-257 melanoma = system: UACC-257 melanoma
UACC-62 melanoma = system: UACC-62 melanoma
UO-31 renal = system: UO-31 renal
XF 498 CNS = system: XF 498 CNS
786-0 renal = system: 786-0 renal
ACHN renal = system: ACHN renal
LXFL 529 NSCLC = system: LXFL 529 NSCLC
M14 melanoma = system: M14 melanoma
RXF-631 renal = system: RXF-631 renal
SR leukemia = system: SR leukemia
TK-10 renal = system: TK-10 renal

## CCCNC1=C(C)C(=O)C2=C(C1=O)[C@H](COC(N)=O)[C@]1(OC)[C@@H]3N[C@@H]3CN21
A498 renal
  TGI: 13.6 µM
A549 NSCLC
  TGI: 8.69 µM
CAKI-1 renal
  TGI: 84.5 µM
CCRF-CEM leukemia
  TGI: 185 µM
COLO 205 colon
  TGI: 45 µM
DLD-1 colon
  TGI: 79.9 µM
DMS 114 small cell lung
  TGI: 59 µM
DMS 273 small cell lung
  TGI: 15.8 µM
EKVX NSCLC
  TGI: 27.4 µM
HCC-2998 colon
  TGI: 20.6 µM
HCT-116 colon
  TGI: 32.2 µM
HCT-15 colon
  TGI: 72 µM
HL-60(TB) leukemia
  TGI: 19.4 µM
HOP-18 NSCLC
  TGI: 53.4 µM
HOP-62 NSCLC
  TGI: 4.42 µM
HOP-92 NSCLC
  TGI: 43.9 µM
HT29 colon
  TGI: 94.3 µM
IGROV1 ovarian
  TGI: 33.3 µM
K-562 leukemia
  TGI: 174 µM
KM12 colon
  TGI: 56.1 µM
KM20L2 colon
  TGI: 121 µM
LOX IMVI melanoma
  TGI: 19.1 µM
M19-MEL melanoma
  TGI: 27.3 µM
MALME-3M melanoma
  TGI: 26.5 µM
MCF7 breast
  TGI: 4.15 µM
MOLT-4 leukemia
  TGI: 31.3 µM
NCI-H226 lung
  TGI: 34 µM
NCI-H23 lung
  TGI: 12.5 µM
NCI-H460 lung
  TGI: 4.17 µM
NCI-H522 lung
  TGI: 12.5 µM
NCI/ADR-RES ovarian
  TGI: 300 µM
OVCAR-3 ovarian
  TGI: 55.3 µM
OVCAR-4 ovarian
  TGI: 19.3 µM
OVCAR-5 ovarian
  TGI: 92.4 µM
OVCAR-8 ovarian
  TGI: 53 µM
P388 leukemia
  TGI: 39.2 µM
P388/ADR leukemia
  TGI: 54.7 µM
RPMI-8226 leukemia
  TGI: 73.9 µM
RXF 393 renal
  TGI: 46.4 µM
SF-268 CNS
  TGI: 77.9 µM
SF-295 CNS
  TGI: 39.7 µM
SF-539 CNS
  TGI: 45.3 µM
SK-MEL-2 melanoma
  TGI: 34.3 µM
SK-MEL-28 melanoma
  TGI: 87.8 µM
SK-MEL-5 melanoma
  TGI: 2650 nM
SK-OV-3 ovarian
  TGI: 170 µM
SN12C renal
  TGI: 69.2 µM
SN12K1 renal
  TGI: 44.1 µM
SNB-19 CNS
  TGI: 45.4 µM
SNB-75 CNS
  TGI: 24.6 µM
SNB-78 CNS
  TGI: 158 µM
SW-620 colon
  TGI: 113 µM
U251 CNS
  TGI: 40.6 µM
UACC-257 melanoma
  TGI: 38.9 µM
UACC-62 melanoma
  TGI: 5.74 µM
UO-31 renal
  TGI: 67.3 µM
XF 498 CNS
  TGI: 15.3 µM

## O=C(O)/C=C\C(=O)c1ccc(Cl)cc1
786-0 renal
  TGI: > 78.7 µM
A498 renal
  TGI: > 100 µM
A549 NSCLC
  TGI: > 100 µM
ACHN renal
  TGI: 73.3 µM
CAKI-1 renal
  TGI: 47.2 µM
CCRF-CEM leukemia
  TGI: 48.7 µM
COLO 205 colon
  TGI: 34.9 µM
DLD-1 colon
  TGI: > 100 µM
DMS 114 small cell lung
  TGI: 55.4 µM
DMS 273 small cell lung
  TGI: > 31.6 µM
EKVX NSCLC
  TGI: > 94 µM
HCC-2998 colon
  TGI: > 100 µM
HCT-116 colon
  TGI: > 58.8 µM
HCT-15 colon
  TGI: 50.2 µM
HL-60(TB) leukemia
  TGI: 58.5 µM
HOP-18 NSCLC
  TGI: > 100 µM
HOP-62 NSCLC
  TGI: > 100 µM
HOP-92 NSCLC
  TGI: 47.8 µM
HT29 colon
  TGI: > 64.9 µM
IGROV1 ovarian
  TGI: > 100 µM
K-562 leukemia
  TGI: 82.8 µM
KM12 colon
  TGI: 98.9 µM
KM20L2 colon
  TGI: > 74.7 µM
LOX IMVI melanoma
  TGI: > 61.7 µM
LXFL 529 NSCLC
  TGI: 48.4 µM
M14 melanoma
  TGI: 33.2 µM
M19-MEL melanoma
  TGI: 55.8 µM
MALME-3M melanoma
  TGI: 34.5 µM
MOLT-4 leukemia
  TGI: 49 µM
NCI-H226 lung
  TGI: > 87.6 µM
NCI-H23 lung
  TGI: > 86.7 µM
NCI-H460 lung
  TGI: > 100 µM
NCI-H522 lung
  TGI: > 100 µM
OVCAR-3 ovarian
  TGI: > 73.3 µM
OVCAR-4 ovarian
  TGI: > 100 µM
OVCAR-5 ovarian
  TGI: > 100 µM
OVCAR-8 ovarian
  TGI: > 100 µM
RPMI-8226 leukemia
  TGI: 66.7 µM
RXF 393 renal
  TGI: 40.5 µM
RXF-631 renal
  TGI: > 100 µM
SF-268 CNS
  TGI: > 71.1 µM
SF-295 CNS
  TGI: > 100 µM
SF-539 CNS
  TGI: 54.2 µM
SK-MEL-2 melanoma
  TGI: > 76.8 µM
SK-MEL-28 melanoma
  TGI: 34.7 µM
SK-MEL-5 melanoma
  TGI: > 100000 nM
SK-OV-3 ovarian
  TGI: > 100 µM
SN12C renal
  TGI: > 100 µM
SNB-19 CNS
  TGI: > 100 µM
SNB-75 CNS
  TGI: > 79 µM
SNB-78 CNS
  TGI: > 100 µM
SR leukemia
  TGI: 52.2 µM
SW-620 colon
  TGI: 50.1 µM
TK-10 renal
  TGI: > 100 µM
U251 CNS
  TGI: > 100 µM
UACC-257 melanoma
  TGI: 38 µM
UACC-62 melanoma
  TGI: > 75.4 µM
UO-31 renal
  TGI: 99.8 µM
XF 498 CNS
  TGI: > 76.6 µM

Reference: PubChem BioAssay (NCI)
